Positions of bridges follow the written chain, without caps; N, C: chain ends. Non-standard residues stand in square brackets, D forms with d. Residues, ends and D or L forms follow the SMILES beside them. Phe(4-CH2NH2) = NCc1ccc(C[C@H](N)C(=O)O)cc1; 2Nal = N[C@@H](Cc1ccc2ccccc2c1)C(=O)O; His(π-Me) = Cn1cncc1C[C@H](N)C(=O)O; hPhe = N[C@@H](CCc1ccccc1)C(=O)O; Phg = N[C@H](C(=O)O)c1ccccc1; Tle = CC(C)(C)[C@H](N)C(=O)O; hCys = N[C@@H](CCS)C(=O)O; Nle = CCCC[C@H](N)C(=O)O
target: human TSP1 (Homo sapiens, UniProt P07996); assay: Cell adhesion inhibition assay (HUVEC adhesion to TSP1-coated plate); type: cell-based; conditions: HUVEC adhesion to human platelet thrombospondin-coated plate, 2.5 hours, CellTiter-Glo; read-out: Cell adhesion IC50
Sequence (P07996 19-1170 limits assumed): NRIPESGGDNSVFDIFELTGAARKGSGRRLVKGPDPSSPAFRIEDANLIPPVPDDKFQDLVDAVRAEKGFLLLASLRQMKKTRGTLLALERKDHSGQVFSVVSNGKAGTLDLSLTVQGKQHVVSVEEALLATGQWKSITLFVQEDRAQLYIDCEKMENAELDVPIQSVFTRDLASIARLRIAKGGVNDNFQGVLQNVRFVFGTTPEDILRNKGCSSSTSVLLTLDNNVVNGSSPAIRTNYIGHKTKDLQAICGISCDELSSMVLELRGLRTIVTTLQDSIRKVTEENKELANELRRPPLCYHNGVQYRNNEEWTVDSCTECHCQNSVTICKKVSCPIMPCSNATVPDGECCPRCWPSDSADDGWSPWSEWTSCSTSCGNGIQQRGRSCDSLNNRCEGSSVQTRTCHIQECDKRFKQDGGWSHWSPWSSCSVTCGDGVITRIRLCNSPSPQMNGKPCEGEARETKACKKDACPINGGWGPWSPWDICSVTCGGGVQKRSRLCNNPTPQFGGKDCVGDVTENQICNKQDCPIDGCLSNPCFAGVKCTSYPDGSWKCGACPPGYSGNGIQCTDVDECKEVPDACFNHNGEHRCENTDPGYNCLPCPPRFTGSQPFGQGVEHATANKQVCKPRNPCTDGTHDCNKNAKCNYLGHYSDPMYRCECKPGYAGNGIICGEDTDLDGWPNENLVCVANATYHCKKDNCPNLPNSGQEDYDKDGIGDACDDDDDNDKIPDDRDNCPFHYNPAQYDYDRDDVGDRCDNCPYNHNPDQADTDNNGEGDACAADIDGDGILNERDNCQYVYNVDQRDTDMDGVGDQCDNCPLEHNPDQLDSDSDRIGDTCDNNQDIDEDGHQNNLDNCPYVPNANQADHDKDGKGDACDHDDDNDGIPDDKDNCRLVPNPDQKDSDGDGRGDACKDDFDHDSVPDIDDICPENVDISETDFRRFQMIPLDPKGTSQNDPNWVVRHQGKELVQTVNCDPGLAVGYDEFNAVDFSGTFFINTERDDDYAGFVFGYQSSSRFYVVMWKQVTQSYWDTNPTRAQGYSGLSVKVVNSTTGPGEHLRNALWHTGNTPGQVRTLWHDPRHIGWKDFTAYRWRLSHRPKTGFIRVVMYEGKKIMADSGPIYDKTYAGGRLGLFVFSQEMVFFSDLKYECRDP
Procedure: As referred to herein, the TSP1 inhibitory activity refers to the activity to inhibit one or more effects of TSP1, including angiostatic effect. The TSP1 inhibitory activity is measured by a cell adhesion inhibition assay using human TSP1 and vascular endothelial cells as described hereinbelow in the Examples section. In this assay, when the 50% inhibitory concentration (IC5O) of a test substance is 200 nM or less, the test substance is determined to have TSP1 inhibitory activity.
(Test Example 1) Cell Adhesion Inhibition Assay
I. Materials and Reagents
96 well Non-treated White with clear bottom (Coster, 3632)
BrightMax adhesive sealing films (EXCEL Scientific, WT50)
Proteosave®SS 15 mL (Sumitomo Bakelite, MS-52150)
Thrombospondin human platelet (Calbiochem, 605225)
EGM-2 MV (Lonza, CC-3202): for HUVEC passaging
Collagen coated dish (IWAKI, 4020-010): for HUVEC passaging
Lipidure®-BL802 (NOF Corporation), 5% solution
Albumin solution (35%) fraction V from Bovine (Sigma, A7979)
CellTiter-Glo (Promega, G7572)
Thrombospondin 1 vial (25 μg) was dissolved in TBS (+2 mM CaCl2; the same shall apply hereunder) to make a 200 μg/mL solution, which was diluted with TBS to a concentration of 10 μg/mL in Proteosave® 15 mL tube. The 10 μg/mL solution was dispensed into a 96 well plate at a volume of 50 μL/well (no reservoir was used since the protein easily adsorbs on it), and the plate was left to stand at 4° C. overnight.
Lipidure® was diluted 10-fold with TBS to make a 0.5% solution. After a buffer was discarded from the plate that had been coated at the step of <Plate coat> as described above, the 0.5% solution was dispensed into all wells to be used at a volume of 100 μL/well, and the plate was left to stand at room temperature for 1 hour.
A 0.2 μM solution of each sample was prepared using a dilution buffer (DMEM+0.5% BSA). 2 μL of the 0.2 μM solution was diluted with 500 μL, of dilution buffer to prepare a diluted sample. As a vehicle control, DMSO was diluted in the same way as the samples.
A blocking solution was discarded from the plate that had been treated at the step of <Plate blocking> as described above, and the plate was washed three times with 150 μL/well of TBS. The washing solution used for the third washing was completely sucked out by an aspirator, and the diluted sample was dispensed into the plate at a volume of 50 μL/well. Then, the plate was left to stand at room temperature for 15 to 30 minutes.
To maintain HUVECs, EGM2-MV and a collagen coated dish were used (the cells were ceased to be used after 10th or 1 lth passage since the cell proliferation rate declined at this stage). The cells were dispersed with 0.05% Trypsin/EDTA, harvested in DMEM/0.5% BSA, and centrifuged at 1000 rpm for 3 minutes. After removal of supernatant, the cells were washed once with a DMEM buffer. The cells were resuspended in a DMEM buffer, counted for cell number, and diluted to 10000 cells/50 μL. The cell suspension was dispensed at a volume of 50 μL/well into the plate into which the sample had been dispensed, mixed gently, and incubated at 37° C. for 2.5 hours.
After cell adhesion was confirmed, the culture medium was completely removed by an aspirator, and 100 μL/well of DMEM/0.5% BSA was gently dispensed. Then, DMEM/0.5% BSA was completely removed by an aspirator, and 50 μL/well of DMEM/0.5% BSA was dispensed. After a white seal was applied to the bottom of the plate, 50 μL/well of CellTiter-Glo® was dispensed, and the solution was stirred for 2 minutes and left to stand at room temperature for 8 minutes. […] was detected using EnVision Xcite Multilabel Reader (produced by Perkin Elmer).
On the basis of the measured fluorescence values, the IC50 values (nM) of the different macrocyclic polypeptides for inhibition of cell adhesion were calculated.

| IC50 | SMILES |
| --- | --- |
| 19.6 nM | CC[C@H](C)[C@@H]1NC(=O)[C@H](Cc2ccc3ccccc3c2)NC(=O)CSC[C@@H](C(N)=O)NC(=O)[C@H](CCc2ccccc2)NC(=O)[C@H](Cc2c[nH]c3ccccc23)NC(=O)[C@H](CCCCN)NC(=O)[C@H](C(C)C)NC(=O)[C@H](Cc2c[nH]c3ccccc23)NC(=O)[C@H](CC(N)=O)NC(=O)[C@H](CCCNC(=N)N)NC(=O)CNC(=O)[C@H](CO)NC1=O [Compound 37] ({CH2CO}-[2Nal]ISGRNWVKW[hPhe]C-NH2; thioether N-12) |
| 9.2 nM | CCCC[C@@H]1NC(=O)[C@H](Cc2c[nH]c3ccccc23)NC(=O)[C@H](CC(N)=O)NC(=O)[C@H](CCCNC(=N)N)NC(=O)CNC(=O)[C@H](CO)NC(=O)[C@H]([C@@H](C)CC)NC(=O)[C@H](Cc2ccc3ccccc3c2)NC(=O)CSC[C@@H](C(N)=O)NC(=O)[C@H](C(C)C)NC(=O)[C@H](Cc2c[nH]c3ccccc23)NC(=O)[C@H](CCCCN)NC1=O [Compound 38] ({CH2CO}-[2Nal]ISGRNW[Nle]KWVC-NH2; thioether N-12) |
| 30.3 nM | CC[C@H](C)[C@@H]1NC(=O)[C@H](Cc2ccccc2)NC(=O)CSC[C@@H](C(N)=O)NC(=O)[C@H](C(C)C)NC(=O)[C@H](Cc2c[nH]c3ccccc23)NC(=O)[C@H](Cc2cncn2C)NC(=O)[C@H](C(C)C)NC(=O)[C@H](Cc2c[nH]c3ccccc23)NC(=O)[C@H](CC(N)=O)NC(=O)[C@H](CCCNC(=N)N)NC(=O)CNC(=O)[C@H](CO)NC1=O [Compound 46] ({CH2CO}-FISGRNWV[His(π-Me)]WVC-NH2; thioether N-12) |
| 16.7 nM | CC[C@H](C)[C@@H]1NC(=O)[C@H](Cc2ccccc2)NC(=O)CSC[C@@H](C(N)=O)NC(=O)[C@H](C(C)C)NC(=O)[C@H](Cc2c[nH]c3ccccc23)NC(=O)[C@H](Cc2ccc(CN)cc2)NC(=O)[C@H](C(C)C)NC(=O)[C@H](Cc2c[nH]c3ccccc23)NC(=O)[C@H](CC(N)=O)NC(=O)[C@H](CCCNC(=N)N)NC(=O)CNC(=O)[C@H](CO)NC1=O [Compound 47] ({CH2CO}-FISGRNWV[Phe(4-CH2NH2)]WVC-NH2; thioether N-12) |
| 11.5 nM | CC(C)[C@@H]1NC(=O)[C@H](Cc2c[nH]c3ccccc23)NC(=O)[C@H](CCCCN)NC(=O)[C@H](C(C)C)NC(=O)[C@H](Cc2c[nH]c3ccccc23)NC(=O)[C@H](CC(N)=O)NC(=O)[C@H](CCCNC(=N)N)NC(=O)CNC(=O)[C@H](CO)NC(=O)[C@H](c2ccccc2)NC(=O)[C@H](Cc2ccc3ccccc3c2)NC(=O)CSC[C@@H](C(N)=O)NC1=O [Compound 49] ({CH2CO}-[2Nal][Phg]SGRNWVKWVC-NH2; thioether N-12) |
| 15.9 nM | CC[C@H](C)[C@@H]1NC(=O)[C@H](Cc2ccc3ccccc3c2)NC(=O)CSC[C@@H](C(N)=O)NC(=O)[C@H](C(C)(C)C)NC(=O)[C@H](Cc2c[nH]c3ccccc23)NC(=O)[C@H](CCCCN)NC(=O)[C@H](C(C)C)NC(=O)[C@H](Cc2c[nH]c3ccccc23)NC(=O)[C@H](CC(N)=O)NC(=O)[C@H](CCCNC(=N)N)NC(=O)CNC(=O)[C@H](CO)NC1=O [Compound 53] ({CH2CO}-[2Nal]ISGRNWVKW[Tle]C-NH2; thioether N-12) |
| 19.5 nM | CC[C@H](C)[C@@H]1NC(=O)[C@H](Cc2ccc3ccccc3c2)NC(=O)CSCC[C@@H](C(N)=O)NC(=O)[C@H](C(C)C)NC(=O)[C@H](Cc2c[nH]c3ccccc23)NC(=O)[C@H](CCCCN)NC(=O)[C@H](C(C)C)NC(=O)[C@H](Cc2c[nH]c3ccccc23)NC(=O)[C@H](CC(N)=O)NC(=O)[C@H](CCCNC(=N)N)NC(=O)CNC(=O)[C@H](CO)NC1=O [Compound 54] ({CH2CO}-[2Nal]ISGRNWVKWV[hCys]-NH2; thioether N-12) |
| 15.6 nM | CCCC[C@@H]1NC(=O)[C@H](Cc2c[nH]c3ccccc23)NC(=O)[C@H](CC(=O)O)NC(=O)[C@H](CCCCN)NC(=O)CNC(=O)[C@H](CO)NC(=O)[C@H]([C@@H](C)CC)NC(=O)[C@H](Cc2ccc3ccccc3c2)NC(=O)CSC[C@@H](C(N)=O)NC(=O)[C@H](C(C)C)NC(=O)[C@H](Cc2c[nH]c3ccccc23)NC(=O)[C@H](CCCCN)NC1=O [Compound 57] ({CH2CO}-[2Nal]ISGKDW[Nle]KWVC-NH2; thioether N-12) |
